# Measured values from patent publication US12201625B2, “Single nucleotide polymorphic alleles of human DP-2 gene for detection of susceptibility to hair growth inhibition by PGD2” (THE TRUSTEES OF THE UNIVERSITY OF PENNSYLVANIA, priority 2015, dated 2025).
# Key:
# human hair follicles [1] = conditions: cited from earlier work
# mouse hair follicles = conditions: cited from earlier work
# C57BL mice = assay: Topical application to depilated back skin of mice, hair cycle stage and hair length; assay type: in vivo, mouse
# Procedure: Animal studies: The back skins of C57BL mice at 6-7 week were depilated. DP-2 antagonists were dissolved in 95% EtOH/2% Glycerol/3% PEG. 100 μL of each compound was spread on the shaved back skin once daily for 2 weeks starting from day 8 post depilation. At day 22 post depilation hair shafts were plucked for hair length measurement and skins were harvested for histological assessment of hair cycle stages.
# human hair follicles [2] = assay: Hair follicle organ (explant) culture, growth over seven days; assay type: cell-based
# Excerpt: Tissue: Scalp was obtained from normally discarded human skin samples from CHTN and from men and women undergoing hair transplantation (IRB exempted study Protocol #818053). Hair follicle organ culture: Hair follicles were microdissected from discarded tissues from hair transplant patients and cultured for seven days as described by Philpott et al. (J. Dermatol. Sci. Suppl: S55-72. (1994)) in the presence or absence of PGD2 and/or DP-2 antagonist, with a change of culture medium every two days. Hair follicles were photographed at the beginning and end of the culture period. Hair follicle growth was measured from the photographs using Image J software.
# [3] = test system: hair follicle keratinocytes; assay: Immunofluorescence staining of cultured hair follicles for Ki67 and active caspase 3; assay type: cell-based, human
# Procedure: Immunostaining: Immunofluorescence analysis with anti-Ki67 and anti-Caspase-3 was performed on cryosections of cultured hair follicles or whole mount hair follicles fixed in 4% PFA. Images were photographed with Leica fluorescence microscope.
# [4] = topical once per day for two weeks, day 22 post depilation
Structure (SMILES),hair growth (human hair follicles [1]),hair growth (mouse hair follicles),"hair follicles entering catagen (hair cycle stage) (C57BL mice; topical once per day for two weeks from day 8 post depilation, harvested day 22)",hair shaft length (C57BL mice; [4]),skin area with hair follicles continuing to grow (C57BL mice; [4]),"anti-PGD2 activity at high doses (human hair follicles [2]; 99.5% pure preparation of AM211, FIG. 3B)","rescue of hair follicles from growth inhibition by PGD2 (human hair follicles [2]; AM211 at 10 nM, PGD2 10 μM, 7 days)","anti-PGD2 effect at high doses (human hair follicles [2]; AM211 preparation purified to 95% homogeneity, FIG. 3A)",apoptosis of hair follicle keratinocytes (active caspase 3) [3],proliferation of hair follicle keratinocytes (Ki67) [3],"patients whose hair follicles exhibited PGD2-mediated growth inhibition (human hair follicles [2]; Group 1, of 35 patients tested)","patients whose hair follicles exhibited PGD2-mediated growth inhibition (human hair follicles [2]; Group 2, of 65 patients tested)","patients whose hair follicles exhibited PGD2-mediated growth inhibition (human hair follicles [2]; Groups 1 and 2 combined, 100 samples)","growth of human hair follicles in explant culture (human hair follicles [2]; PGD2 10 μM added to culture medium, 7 days)","inhibitory effect on hair growth, dose dependence (human hair follicles [2]; explant culture, FIG. 1B)"
"CCCCC/C=C/C=C1/C(=O)C=C[C@@H]1C/C=C\CCCC(=O)O [15-dPGJ2, 15-deoxy-D12,14-prostaglandin J2]",inhibit hair growth,inhibit hair growth,,,,,,,,,,,,,
CCN(Cc1cc(C(F)(F)F)ccc1-c1cc(CC(=O)O)ccc1OC)C(=O)NCc1ccccc1 [AM211],,,dose-dependent delay in hair follicles entering catagen,longer hair shaft,larger area with hair follicles continuing to grow,sustained anti-PGD2 activity,rescued hair follicles from the inhibition by PGD2,reduction in anti-PGD2 effect,,,,,,,
"CCCCC[C@H](O)/C=C/[C@H]1C(=O)C[C@H](O)[C@@H]1C/C=C\CCCC(=O)O [PGD2, prostaglandin D2]",inhibit hair growth,inhibit hair growth,,,,,,,promoted apoptosis,suppressed proliferation,21,31,52,severely inhibited,dose-dependent manner
